Assays:
[1] = Odor of permanently waved hair strands, leave-on method (base: conditioner); details: for Odor rating vs blank, Day 1, pH 2-3 / Odor rating vs blank, Day 1, pH 4-5 / Odor rating vs blank, Day 2, pH 2-3 / Odor rating vs blank, Day 2, pH 4-5 / Odor rating vs blank, Day 3, pH 2-3 / Odor rating vs blank, Day 3, pH 4-5 / Odor rating vs blank, Day 4, pH 2-3 / Odor rating vs blank, Day 4, pH 4-5: test substance 0.01 wt. %; for Odor rating vs blank, Day 1, pH 2-3 / Odor rating vs blank, Day 1, pH 4-5: Day 1, wet; for Odor rating vs blank, Day 1, pH 2-3 / Odor rating vs blank, Day 2, pH 2-3 / Odor rating vs blank, Day 3, pH 2-3 / Odor rating vs blank, Day 4, pH 2-3: pH 2-3, each symbol = one test strand; for Odor rating vs blank, Day 1, pH 4-5 / Odor rating vs blank, Day 2, pH 4-5 / Odor rating vs blank, Day 3, pH 4-5 / Odor rating vs blank, Day 4, pH 4-5: pH 4-5, each symbol = one test strand; for Odor rating vs blank, Day 2, pH 2-3 / Odor rating vs blank, Day 2, pH 4-5: Day 2, dry; for Odor rating vs blank, Day 3, pH 2-3 / Odor rating vs blank, Day 3, pH 4-5: Day 3, wet; for Odor rating vs blank, Day 4, pH 2-3 / Odor rating vs blank, Day 4, pH 4-5: Day 4, dry; for odor-reducing action (efficacy), in words: pH 2-3 and pH 4-5, summary of Table 1
Procedure: The test substances were tested on hair that had been freshly permanently waved. To this end, hair braids were cut into 2.5-cm pieces, bleached for 30 minutes and washed with perfume-free shampoo. To obtain fully odorless strands, the strands were then dipped three times into a mixture of isopropanol 25%/ethanol 25%/water 50%. The hair was kept for 24 hours in a conditioning room (20° C. at 85% relative humidity) and then cut to a weight of 2 g. This was followed by an odor test. Ten strands per post-treatment agent to be tested were wound onto rollers (diameter: 13 mm) and kept overnight in the conditioning room (20° C. at 85% relative humidity). The next morning, these strands were subjected to permanent waving.
Ten rollers holding 2 g of hair each were placed in a crystallizing dish and covered twice with 20 g of a commercial wave lotion, the rollers being turned over after the first 20 g to ensure uniform distribution. The rollers were then placed in a drier at 40° C. for 15 min, after which they were rinsed with water for 5 minutes namely for 2 min under running city water and for an additional 3 min by immersing them in water. The hair was then dabbed dry with a paper napkin. Afterward, the fixation was carried out with the aid of a commercial foam fixative. To this end, the rollers were immersed for 3 min in 500 mL of fixing solution. Excess fixing solution was then poured off, and the rollers were allowed to stand for an additional 7 minutes. They were then again rinsed with water for 5 min (see above) and dabbed dry with a paper napkin. Finally, the hair was detached from the roller and placed in a drier at 40° C. for 60 minutes.
To test the efficacy of the compounds as permanent wave post-treatment agents, the zinc salts and the corresponding zinc-free acids alone were incorporated at two different pH values into common cosmetic product bases. Zinc citrate (trizinc dicitrate) made soluble with a slight excess of citric acid was tested as the reference substance for a zinc salt without the odor-influencing counterion. The oxocarboxylic acids were used both as the sodium salts and in the form of their zinc salts. The pH values were then adjusted with citric acid or NaOH.
In the following example, 0.5 mL of a leave-on conditioner was massaged into the freshly permanently waved hair (2 g in each case), and after a contact time of 10 min the odor was evaluated by five test subjects (Table 1). In each case, the odor evaluation was performed on 3 test strands. The average values of the evaluation results are tabulated.
Each symbol stands for one test strand. • ◯=odor indistinguishable from that of blank • +=odor better than that of blank • ++=odor appreciably better than that of blank/odorless

[2] = Odor of permanently waved hair strands, rinse-off method (base: hair-cure agent); details: for Odor rating vs blank, Day 1, pH 2-3 / Odor rating vs blank, Day 1, pH 4-5 / Odor rating vs blank, Day 2, pH 2-3 / Odor rating vs blank, Day 2, pH 4-5 / Odor rating vs blank, Day 3, pH 2-3 / Odor rating vs blank, Day 3, pH 4-5 / Odor rating vs blank, Day 4, pH 2-3 / Odor rating vs blank, Day 4, pH 4-5: rinse-off hair-cure agent, 5-min contact, table head 0.01 wt. % (text b103: 0.1 wt. %), each symbol = one test strand; for Odor rating vs blank, Day 1, pH 2-3 / Odor rating vs blank, Day 1, pH 4-5: Day 1, wet; for Odor rating vs blank, Day 2, pH 2-3 / Odor rating vs blank, Day 2, pH 4-5: Day 2, dry; for Odor rating vs blank, Day 3, pH 2-3 / Odor rating vs blank, Day 3, pH 4-5: Day 3, wet; for Odor rating vs blank, Day 4, pH 2-3 / Odor rating vs blank, Day 4, pH 4-5: Day 4, dry
[3] = Various odor tests carried out on permanently waved hair (general statements); details: sulfur odor of permanently waved hair; general statement

Molecule	Odor rating vs blank, Day 1, pH 2-3 [1]	Odor rating vs blank, Day 1, pH 4-5 [1]	Odor rating vs blank, Day 2, pH 2-3 [1]	Odor rating vs blank, Day 2, pH 4-5 [1]	Odor rating vs blank, Day 3, pH 2-3 [1]	Odor rating vs blank, Day 3, pH 4-5 [1]	Odor rating vs blank, Day 4, pH 2-3 [1]	Odor rating vs blank, Day 4, pH 4-5 [1]	Odor rating vs blank, Day 1, pH 2-3 [2]	Odor rating vs blank, Day 1, pH 4-5 [2]	Odor rating vs blank, Day 2, pH 2-3 [2]	Odor rating vs blank, Day 2, pH 4-5 [2]	Odor rating vs blank, Day 3, pH 2-3 [2]	Odor rating vs blank, Day 3, pH 4-5 [2]	Odor rating vs blank, Day 4, pH 2-3 [2]	Odor rating vs blank, Day 4, pH 4-5 [2]	odor-reducing action (efficacy), in words [1]	odor-reducing effect on permanently waved hair, in words [3]	odor-reducing effect, in words ([2]; lowest concentrations in rinse-off products, applied immediately after permanent wave treatment or up to four days later)
O=C([O-])CC(O)(CC(=O)[O-])C(=O)[O-].O=C([O-])CC(O)(CC(=O)[O-])C(=O)[O-].[Zn+2].[Zn+2].[Zn+2] [Trizinc dicitrate, trizinc dicitrate]	+ ∘ ∘	∘ + +	∘ + ∘	∘ + +	∘ ∘ +	∘ + +	∘ + ∘	+ + +	∘ ∘ ∘	∘ ∘ +	+ ∘ ∘	∘ + +	∘ ∘ +	∘ + +	∘ ∘ +	∘ + +	–	–	–
CC(=O)C(=O)[O-].[Na+] [Na pyruvate]	+ ∘ +	∘ ∘ +	∘ + ∘	∘ + ∘	∘ + +	∘ + +	∘ + +	+ + ∘	∘∘ +	∘ + +	∘ + +	∘ + +	∘ + +	∘ + +	∘ + +	∘ + +	–	–	–
CC(=O)CCC(=O)O [levulinic acid, 4-oxopentanoic acid]	–	–	–	–	–	–	–	–	–	–	–	–	–	–	–	–	some odor-reducing action in strong acids	effective odor reducer	–
zinc levulinate [Zn levulinate]	+ + +	++ ++ and ++	+ + +	+ + ++	+ + +	++ ++ and ++	+ + +	+ ++ and ++	+ + +	++ ++ and ++	+ + +	+ + +	+ + +	+ + +	+ + +	++ + ++	unique in the entire pH range tested	much more intense than that of any other zinc compound	drastic odor-reducing effect
O=CC(=O)[O-].O=CC(=O)[O-].[Zn+2] [Zn glyoxylate]	∘ + +	+ ∘ ∘	∘ ∘ ∘	∘ + +	∘ ∘ +	+ ∘ +	∘ ∘ +	+ + ∘	∘ ∘ ∘	∘ + +	∘ ∘ ∘	+ ∘ +	∘ ∘ +	+ + ∘	∘ ∘ +	∘ + +	–	–	–
CC(=O)C(=O)[O-].CC(=O)C(=O)[O-].[Zn+2] [Zn pyruvate]	∘ + ∘	+ + +	∘ ∘ ∘	+ + +	∘ ∘ ∘	∘ + +	∘ ∘ ∘	+ + +	∘ ∘ ∘	∘ + ∘	∘ ∘ ∘	+ ∘ +	∘ ∘ ∘	∘ + +	∘ ∘ ∘	+ + +	–	–	–
CC(=O)CCC(=O)[O-].[Na+] [Na levulinate]	+ + +	+ ∘ +	+ + +	+ ∘ +	∘ + +	+ + ∘	+ + +	+ + +	+ + +	+ ∘ +	+ + ∘	+ ∘ ∘	∘ + +	+ ∘ ∘	∘ ∘ +	+ ∘ ∘	–	–	–
O=CC(=O)[O-].[Na+] [Na glyoxylate]	∘ + +	∘ + ∘	+ + ∘	+ + ∘	∘ ∘ +	∘ + +	∘ + +	+ ∘ +	∘ ∘ ∘	∘ ∘ ∘	+ ∘ +	+ ∘ +	∘ ∘ +	+ + ∘	∘ + +	∘ + +	–	–	–

— patent publication US20080299062A1, “Use of Oxocarboxylic Acids-Containing Combinations for Deodorization” (priority 2004, published 2008)
